Tests used:
[1] = test system: IOP in cynomolgus monkey eyes; experiment: Monkey IOP response in lasered (ocular hypertensive) cynomolgus monkey eyes; assay type: in vivo; conditions: lasered right eyes of cynomolgus monkeys; five-dose regimen; estimated from dose response relationship
Experimental: In the study presented below, compound 6 (Table 2, above) was tested for IOP-lowering effect in cynomolgus monkey eyes.
The right eyes of the cynomolgus monkeys used in this study were previously given laser trabeculoplasty to induce ocular hypertension in the lasered eye. Animals had been trained to sit in restraint chairs and conditioned to accept experimental procedures without chemical restraint. IOP was determined with a pneumatonometer after light corneal anesthesia with dilute proparacaine. The test protocol included a five-dose treatment regimen because of the typical delayed response to prostaglandins. The designated test formulations were administered to the lasered right eyes, and the normal left eyes remained untreated, although IOP measurements were taken. Baseline IOP values were determined prior to treatment with the test formulation, and then IOP was determined from 1 to 7 hours after the first dose, 16 hours after the fourth dose, and 1 to 4 hours after the fifth dose.
The equivalent response dose (ED20) is estimated from the dose response relationship to be the dose producing a 20% peak reduction in IOP.

pupil diameter of cats = experiment: Cat pupil diameter response (pupillary constriction in the cat); assay type: in vivo; conditions: for ED5 (equivalent response dose, from Area1-5 of pupil diameter versus time curve): area under pupil diameter vs time curve 1-5 hours, estimated from dose response relationship
Experimental: PGF2α analogues are known to contract the iris sphincter of cats and this assay is a generally accepted reference for activity.
Compounds of the present invention were therefore screened for pupillary constriction in the cat. The response is quantitated as Area1-5 values (area under the pupil diameter versus time curve from 1-5 hours), and the equivalent response dose (ED5) is estimated from its dose response relationship.

[2] = test system: microvascular optic nerve head (ONH) blood flow; experiment: Optic nerve head blood flow after one-week topical treatment in the rabbit (Laser Doppler flowmeter); assay type: in vivo, Dutch-Belted rabbits
Experimental: (§1) Purpose: A two-way crossover study design was used to compare the effects of Compound 1B (0.004%), topically applied, and dosing vehicle on microvascular optic nerve head blood flow, blood pressure, heart rate, and acid-base balance in fifteen acepromazine-tranquilized Dutch-Belted rabbits. Methods: Baseline measurements were taken before treatment and after drug-free washout periods of 14 days. Microvascular optic nerve head (ONH) blood flow was measured with a fundus camera-based Laser Doppler flowmeter (LDf). Thirty microliters o a 0.004% solution of Compound 1B or vehicle was administered in left eyes only q.d. for 7 days. Experimental measurements were made 2 hours after the topical dose was administered on day 8. A sterile 23 gauge intracatheter was inserted into the central ear artery to monitor blood pressure and to take blood samples for blood pH/gas analysis.

[3] = Systemic blood pressure, heart rate and blood pH/gas analysis in the rabbit ONH blood flow study; assay type: in vivo, Dutch-Belted rabbits; conditions: 0.004% topical q.d. 7 days
Experimental: as §1

## CC(C)OC(=O)CCC/C=C\CC1C(CC[C@@H](O)COc2cccc(C(F)(F)F)c2)[C@H](O)C[C@@H]1O (stereo partly drawn) [Compound 6, (5Z)-(9S, 11R, 15R)-17,18,19,20-Tetranor-16-(3-trifluoromethylphenoxy)-9,11,15-trihydroxy-5-prostenoic Acid Isopropyl Ester]
[1]
  ED20 (dose producing a 20% peak reduction in IOP): 0.3 µg
Pupil diameter of cats
  ED5 (equivalent response dose, from Area1-5 of pupil diameter versus time curve): 0.2 µg

## CC(C)(C)C(=O)OCCCC/C=C\C[C@@H]1[C@@H](CC[C@@H](O)COc2cccc(Cl)c2)[C@H](O)C[C@@H]1O [Compound 8, (5Z)-(9S, 11R, 15R)-16-(3-Chlorophenoxy)-17,18,19,20-tetranor-9,11,15-trihydroxy-5-prostenol Pivaloate]
Pupil diameter of cats
  ED5 (equivalent response dose, from Area1-5 of pupil diameter versus time curve): 0.06 µg
Pupil diameter of cats; versus PGF2α isopropyl ester and cloprostenol isopropyl ester
  potency in cat pupil diameter response compared with the standard compounds: nearly equivalent potency

## CC(C)OC(=O)CCC/C=C\C[C@H]1C(O)CC(O)[C@@H]1/C=C/C(O)COc1cccc(C(F)(F)F)c1 (stereo partly shown) [Compound 1B, Fluprostenol, isopropyl ester]
[2]; 0.004% solution, 30 microliters topical q.d. 7 days, measured 2 hours after dose on day 8, acepromazine-tranquilized rabbits
  ONH blood flow, mean±SEM percent increase from baseline: 13.4±3.9%
[2]; 0.004% topical q.d., p<0.05
  ONH blood flow compared to the vehicle treated group: significantly increased
[3]
  changes in systemic blood pressure, heart rate, blood gas tensions and pH compared with the vehicle group: small non-significant changes
  mean percent decrease in arterial pCO2 tension: 2.59±2.5%
  mean percent decrease in arterial pO2 tension: 1.44±2.03%
  mean percent decrease in systemic arterial pH: 0.07±0.09%

## CC(C)OC(=O)CCC/C=C\C[C@@H]1[C@@H](/C=C/[C@@H](O)COc2cccc(Cl)c2)[C@H](O)C[C@@H]1O [Compound 1A, Cloprostenol, isopropyl ester]
Pupil diameter of cats
  ED5 (equivalent response dose, from Area1-5 of pupil diameter versus time curve): 0.01 µg

## CCCCC[C@H](O)/C=C/[C@@H]1[C@@H](C/C=C\CCCC(=O)OC(C)C)[C@@H](O)C[C@H]1O [PGF2α Isopropyl Ester, reference compound]
[1]
  ED20 (dose producing a 20% peak reduction in IOP): 0.4 µg
Pupil diameter of cats
  ED5 (equivalent response dose, from Area1-5 of pupil diameter versus time curve): 0.02 µg
